# Counter-ions that a name gives are not always drawn.
# System: not given
# Details: not given
row,melting point,SMILES
1,243 °C,"NC(N)=NC(=O)/C=C/c1ccccc1F (as salt: hydrochloride) [Example 4, E-3-(2-Fluorophenyl)acrylic acid guanidide hydrochloride]"
2,230 °C,"NC(N)=NC(=O)/C=C/c1cc(F)ccc1F (as salt: hydrochloride) [Example 2, E-3-(2,5-Difluorophenyl)acrylic acid guanidide hydrochloride]"
3,178 °C,"C/C(=C\c1cc(F)cc(F)c1)C(=O)N=C(N)N (as salt: hydrochloride) [Example 5, E-3-(3,5-Difluorophenyl)-2-methylacrylic acid guanidide hydrochloride]"
4,138 °C,"C/C(=C\c1c(F)c(F)cc(F)c1F)C(=O)N=C(N)N (as salt: hydrochloride) [Example 9, E-3-(2,3,5,6-Tetrafluorophenyl)-2-methylacrylic acid guanidide hydrochloride]"
5,148 °C,"NC(N)=NC(=O)/C=C/c1cccc(F)c1 (as salt: hydrochloride) [Example 1, E-3-(3-Fluorophenyl)acrylic acid guanidide hydrochloride]"
6,235 °C,"NC(N)=NC(=O)/C=C/c1cc(F)cc(F)c1 (as salt: hydrochloride) [Example 3, E-3-(3,5-Difluorophenyl) acrylic acid guanidide hydrochloride]"

# System: rat heart
# Details: isolated rat heart; cited from earlier work
row,SMILES,suppression of artificially produced ventricular fibrillation
1,N=C(N)NC(=O)c1nc(Cl)c(N)nc1N [amiloride],completely suppressed
2,CCN(c1nc(N)c(C(=O)NC(=N)N)nc1Cl)C(C)C [ethylisopropylamiloride],even more potent than amiloride

# Reference: patent publication US6504057B2, “Fluorophenyl-substituted alkenylcarboxylic acid guanidides, process for their preparation, their use as a medicament or diagnostic, and medicament containing them” (Hoechst Aktiengesellschaft, priority 1995, dated 2003)
